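All cell lines were grown in 96-well plates and treated with compound for 48 hours. At the GI50, growth is halved. TGI denotes the concentration required for complete inhibition of growth.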
What was measured:
Experiment in all cases: DTP human tumour cell line panel, 48 h
[1] = system: SK-MEL-28 melanoma
[2] = system: DU-145 prostate
[3] = system: MDA-MB-468 breast
[4] = system: HL-60(TB) leukemia
[5] = system: CAKI-1 renal
[6] = system: SNB-75 CNS
[7] = system: OVCAR-4 ovarian
[8] = system: MDA-MB-231 breast
[9] = system: TK-10 renal
[10] = system: OVCAR-3 ovarian
[11] = system: NCI-H226 lung
[12] = system: COLO 205 colon
[13] = system: OVCAR-8 ovarian
[14] = system: UACC-257 melanoma
[15] = system: M14 melanoma
[16] = system: HOP-62 NSCLC
[17] = system: NCI/ADR-RES ovarian
[18] = system: SNB-19 CNS
[19] = system: SW-620 colon
[20] = system: MALME-3M melanoma
[21] = system: SR leukemia
[22] = system: RXF 393 renal
[23] = system: A549 NSCLC
[24] = system: HCT-116 colon
[25] = system: IGROV1 ovarian
[26] = system: KM12 colon
[27] = system: PC-3 prostate
[28] = system: T-47D breast
[29] = system: SF-268 CNS
[30] = system: HCT-15 colon
[31] = system: U251 CNS
[32] = system: MOLT-4 leukemia
[33] = system: K-562 leukemia
[34] = system: RPMI-8226 leukemia
[35] = system: HS 578T breast
[36] = system: SF-295 CNS
[37] = system: NCI-H23 lung
[38] = system: CCRF-CEM leukemia
[39] = system: OVCAR-5 ovarian
[40] = system: EKVX NSCLC
[41] = system: UO-31 renal
[42] = system: NCI-H460 lung
[43] = system: SK-MEL-5 melanoma
[44] = system: MCF7 breast
[45] = system: ACHN renal
[46] = system: BT-549 breast
[47] = system: HCC-2998 colon
[48] = system: SK-MEL-2 melanoma
[49] = system: SN12C renal
[50] = system: SF-539 CNS
[51] = system: UACC-62 melanoma
[52] = system: LOX IMVI melanoma
[53] = system: NCI-H522 lung
[54] = system: 786-0 renal
[55] = system: MDA-MB-435
[56] = system: SK-OV-3 ovarian
[57] = system: HOP-92 NSCLC
[58] = system: HT29 colon
[59] = system: A498 renal

## O=C(NNc1nc2cc(C(F)(F)F)ccc2n2cccc12)c1cnccn1
[1]
  GI50: 478 nM
  TGI: 2090 nM
[2]
  GI50: 526 nM
  TGI: 2440 nM
[3]
  GI50: 190 nM
  TGI: 661 nM
[4]
  GI50: 166 nM
  TGI: 1690 nM
[5]
  GI50: 299 nM
  TGI: 1660 nM
[6]
  GI50: 1010 nM
  TGI: 2880 nM
[7]
  GI50: 266 nM
  TGI: 2270 nM
[8]
  GI50: 438 nM
  TGI: 1940 nM
[9]
  GI50: 452 nM
  TGI: 1770 nM
[10]
  GI50: 287 nM
  TGI: 1580 nM
[11]
  GI50: 772 nM
  TGI: 3900 nM
[12]
  GI50: 364 nM
  TGI: 1480 nM
[13]
  GI50: 365 nM
  TGI: 2380 nM
[14]
  GI50: 501 nM
  TGI: 1940 nM
[15]
  GI50: 250 nM
  TGI: 1370 nM
[16]
  GI50: 214 nM
  TGI: 1920 nM
[17]
  GI50: 255 nM
  TGI: 1480 nM
[18]
  GI50: 437 nM
  TGI: 2540 nM
[19]
  GI50: 422 nM
  TGI: 2470 nM
[20]
  GI50: 1140 nM
  TGI: 2550 nM
[21]
  GI50: 46.9 nM
  TGI: 1200 nM
[22]
  GI50: 1050 nM
  TGI: 2310 nM
[23]
  GI50: 424 nM
  TGI: 8910 nM
[24]
  GI50: 182 nM
  TGI: 1320 nM
[25]
  GI50: 146 nM
  TGI: 1600 nM
[26]
  GI50: 341 nM
  TGI: 2060 nM
[27]
  GI50: 325 nM
  TGI: 2190 nM
[28]
  GI50: 292 nM
  TGI: 1720 nM
[29]
  GI50: 357 nM
  TGI: 3900 nM
[30]
  GI50: 89.1 nM
  TGI: 1550 nM
[31]
  GI50: 199 nM
  TGI: 2210 nM
[32]
  GI50: 235 nM
  TGI: 5060 nM
[33]
  GI50: 356 nM
[34]
  GI50: 290 nM
  TGI: 3450 nM
[35]
  GI50: 1500 nM
  TGI: 10700 nM
[36]
  GI50: 134 nM
  TGI: 1590 nM
[37]
  GI50: 517 nM
  TGI: 2030 nM
[38]
  GI50: 141 nM
  TGI: 1950 nM
[39]
  GI50: 776 nM
  TGI: 2490 nM
[40]
  GI50: 176 nM
  TGI: 1230 nM
[41]
  GI50: 83.2 nM
  TGI: 1570 nM
[42]
  GI50: 116 nM
  TGI: 5580 nM
[43]
  GI50: 602 nM
  TGI: 1960 nM
[44]
  GI50: 293 nM
  TGI: 1500 nM
[45]
  GI50: 217 nM
  TGI: 1450 nM
[46]
  GI50: 1060 nM
  TGI: 3410 nM
[47]
  GI50: 463 nM
  TGI: 2030 nM
[48]
  GI50: 475 nM
  TGI: 1730 nM
[49]
  GI50: 411 nM
  TGI: 2070 nM
[50]
  GI50: 406 nM
  TGI: 1980 nM
[51]
  GI50: 302 nM
  TGI: 1570 nM
[52]
  GI50: 128 nM
  TGI: 1300 nM
[53]
  GI50: 248 nM
  TGI: 944 nM
[54]
  GI50: 365 nM
  TGI: 1690 nM
[55]
  GI50: 807 nM
  TGI: 2710 nM
[56]
  GI50: 477 nM
  TGI: 1860 nM
[57]
  GI50: 330 nM
  TGI: 2200 nM
[58]
  GI50: 553 nM
  TGI: 2310 nM
[59]
  GI50: 1620 nM
  TGI: 3340 nM

From PubChem BioAssay (NCI)
